Results published in patent US10479780B2, “Aminopyrazole derivatives” (Chugai Seiyaku Kabushiki Kaisha, priority 2015, dated 2019).
Read-outs that look alike come from different tables or passages of the source.

Legend:
Assay type in all cases: biochemical
human Yes1 enzyme = molecular target: T1, human Yes1 enzyme (Homo sapiens, UniProt P07947); assay: Yes1 enzyme inhibitory activity (time-resolved fluorometry, biotinylated peptide phosphorylation); details: read-out: YES_IC50
T1 construct: made in house
T1 sequence (P07947 whole entry): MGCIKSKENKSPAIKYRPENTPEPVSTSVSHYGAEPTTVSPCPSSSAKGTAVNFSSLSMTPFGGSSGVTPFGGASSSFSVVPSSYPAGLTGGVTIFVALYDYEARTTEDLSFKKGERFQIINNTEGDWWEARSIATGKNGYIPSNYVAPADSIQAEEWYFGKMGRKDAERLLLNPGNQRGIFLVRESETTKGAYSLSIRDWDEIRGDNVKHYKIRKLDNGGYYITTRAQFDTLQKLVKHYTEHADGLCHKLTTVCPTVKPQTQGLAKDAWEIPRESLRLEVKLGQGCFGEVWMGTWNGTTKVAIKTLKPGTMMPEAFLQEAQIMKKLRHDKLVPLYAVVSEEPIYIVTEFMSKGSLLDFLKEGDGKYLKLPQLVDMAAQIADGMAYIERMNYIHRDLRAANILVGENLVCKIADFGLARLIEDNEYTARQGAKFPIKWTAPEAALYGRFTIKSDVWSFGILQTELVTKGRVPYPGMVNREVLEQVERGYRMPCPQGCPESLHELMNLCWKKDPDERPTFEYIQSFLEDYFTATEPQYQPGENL
In short: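 Inhibition was expressed against a compound-free control to give IC50, using TR-FRET read-out (Eu-cryptate anti-pTyr antibody, streptavidin-XL665).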

human Src enzyme = molecular target: T2, human Src enzyme (Homo sapiens, UniProt P12931); assay: Src enzyme inhibitory activity (time-resolved fluorometry, biotinylated peptide phosphorylation); details: read-out: SRC_IC50
T2 construct: purchased Carna Biosciences, Inc. 08-173
T2 sequence (P12931 whole entry): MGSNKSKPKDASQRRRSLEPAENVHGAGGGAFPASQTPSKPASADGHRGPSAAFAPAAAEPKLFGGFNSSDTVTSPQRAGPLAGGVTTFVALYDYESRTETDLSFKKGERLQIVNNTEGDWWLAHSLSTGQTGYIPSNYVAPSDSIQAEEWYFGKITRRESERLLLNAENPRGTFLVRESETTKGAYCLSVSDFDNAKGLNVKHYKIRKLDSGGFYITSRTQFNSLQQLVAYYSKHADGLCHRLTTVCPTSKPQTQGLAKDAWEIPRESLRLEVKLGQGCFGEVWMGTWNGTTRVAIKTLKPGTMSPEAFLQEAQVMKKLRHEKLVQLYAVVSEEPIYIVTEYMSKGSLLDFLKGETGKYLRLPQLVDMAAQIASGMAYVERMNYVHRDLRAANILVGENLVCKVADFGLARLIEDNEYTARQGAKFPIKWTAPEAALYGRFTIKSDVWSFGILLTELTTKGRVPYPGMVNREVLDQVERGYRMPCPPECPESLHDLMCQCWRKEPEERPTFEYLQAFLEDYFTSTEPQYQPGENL
In short: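 Compounds were tested for blocking tyrosine phosphorylation of a biotinylated peptide substrate by recombinant human Src. Phosphorylated product was quantified by time-resolved fluorometry using europium cryptate and XL665 conjugates, and IC50 was calculated against the compound-free control.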

human Lck enzyme = molecular target: T3, human Lck enzyme (Homo sapiens, UniProt P06239); assay: Lck enzyme inhibitory activity (time-resolved fluorometry, biotinylated peptide phosphorylation); details: read-out: LCK_IC50
T3 construct: purchased Carna Biosciences, Inc. 08-170
T3 sequence (P06239 whole entry): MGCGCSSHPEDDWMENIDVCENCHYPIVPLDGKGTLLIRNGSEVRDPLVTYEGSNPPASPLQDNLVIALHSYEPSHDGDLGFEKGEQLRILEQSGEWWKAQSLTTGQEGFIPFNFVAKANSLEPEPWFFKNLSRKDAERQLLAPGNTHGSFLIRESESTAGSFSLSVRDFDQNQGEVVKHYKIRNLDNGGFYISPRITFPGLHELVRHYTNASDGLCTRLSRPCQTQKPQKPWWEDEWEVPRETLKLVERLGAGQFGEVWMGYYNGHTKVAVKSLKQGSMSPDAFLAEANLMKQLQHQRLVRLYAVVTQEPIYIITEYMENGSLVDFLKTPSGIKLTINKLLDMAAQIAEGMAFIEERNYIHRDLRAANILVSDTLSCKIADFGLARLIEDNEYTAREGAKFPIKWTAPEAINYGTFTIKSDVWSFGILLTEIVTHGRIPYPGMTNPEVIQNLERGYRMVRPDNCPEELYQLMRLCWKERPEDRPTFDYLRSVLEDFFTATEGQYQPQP
In short: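 Readout pairs a europium cryptate-labelled anti-phosphotyrosine antibody with XL665-streptavidin, measured by time-resolved fluorescence. IC50 derived from percent inhibition against untreated controls.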

[1] = biotinylated peptide phosphorylation

SMILES | IC50 (human Yes1 enzyme; [1]) [nM] | IC50 (human Src enzyme; [1]) [nM] | IC50 (human Lck enzyme; [1]) [nM] | IC50 (human Yes1 enzyme) [nM] | IC50 (human Src enzyme) [nM] | IC50 (human Lck enzyme) [nM]
Cc1cc(Oc2ccccc2F)ncc1-n1ncc(C(=O)c2cc3cc(C4CC4)c(NS(=O)(=O)CCCF)cc3[nH]2)c1N [Example 5-1-428, N-[2-[5-amino-1-[6-(2-fluorophenoxy)-4-methylpyridin-3-yl]pyrazole-4-carbonyl]-5-cyolopropyl-1H-indol-6-yl]-3-fluoropropane-1-sulfonamide] | 3.1 | 170 | 46 |  |  | 
Cc1cc(Oc2ccccc2F)ncc1-n1ncc(C(=O)c2cc3cc(OC(F)F)c(C4CCN(S(C)(=O)=O)CC4)cc3[nH]2)c1N [Example 4-17-009, [5-amino-1-[6-(2-fluorophenoxy)-4-methylpyridin-3-yl]pyrazol-4-yl]-[5-(difluoromethoxy)-6-(1-methylsulfonylpiperidin-4-yl)-1H-indol-2-yl]methanone] | 1.8 | 14 | 4.9 |  |  | 
Cc1cc2cc(C(=O)c3cnn(-c4ccc(Oc5ccccc5F)cc4C)c3N)[nH]c2cc1N1C(=O)NC2(CCC2)C1=O [Example 5-1-371, 7-[2-[5-amino-1-[4-(2-fluorophenoxy)-2-methylphenyl]pyrazole-4-carbonyl]-5-methyl-1H-indol-6-yl]-5,7-diazaspiro[3.4]octane-6,8-dione] |  |  |  | 2 | 30 | 9.8
Cc1cc(Oc2ccccc2F)ccc1-n1ncc(C(=O)c2cc3cc(OC4CCN(C(C)C)CC4)c(NS(C)(=O)=O)cc3[nH]2)c1N [Example 5-1-189, N-[2-[5-amino-1-[4-(2-fluorophenoxy)-2-methylphenyl]pyrazole-4-carbonyl]-5-(1-propan-2-ylpiperidin-4-yl)oxy-1H-indol-6-yl] methanesulfonamide] |  |  |  | 0.38 | 3.3 | 1.5
Cc1cc(Oc2ccccc2F)ccc1-n1ncc(C(=O)c2cc3cc(OC(F)F)c(N)cc3[nH]2)c1N [Example 5-1-083, [6-amino-5-(difluoromethoxy)-1H-indol-2-yl]-[5-amino-1-[4-(2-fluorophenoxy)-2-methylphenyl]pyrazol-4-yl]methanone] |  |  |  | 0.72 | 7.2 | 7
Cc1cc(Oc2ccccc2F)ccc1-n1ncc(C(=O)c2cc3cc(OCC(F)F)c(C4CCN(C(=O)CN)CC4)cc3[nH]2)c1N [Example 4-18-004, 2-amino-1-[4-[2-[5-amino-1-[4-(2-fluorophenoxy)-2-methylphenyl]pyrazole-4-carbonyl]-5-(2,2-difluoroethoxy)-1H-indol-6-yl]piperidin-1-yl]ethanone] | 1.6 | 16 | 9.2 |  |  | 
Cc1cc(-n2ncc(C(=O)c3cc4cc(OCC(F)F)c(N5CCC(N6CCOCC6)CC5)cc4[nH]3)c2N)ccc1Oc1ccccc1F [Example 5-1-172, [5-amino-1-[4-(2-fluorophenoxy)-3-methylphenyl]pyrazol-4-yl]-[5-(2,2-difluoroethoxy)-6-(4-morpholin-4-ylpiperidin-1-yl)-1H-indol-2-yl]methanone] |  |  |  | 0.9 | 170 | 18
Cc1cc(Oc2cccc(Cl)c2)cc(F)c1-n1ncc(C(=O)c2cc3cc(NS(C)(=O)=O)c(F)cc3[nH]2)c1N [Example 5-1-048, N-[2-[5-amino-1-[4-(3-chlorophenoxy)-2-fluoro-6-methylphenyl]pyrazole-4-carbonyl]-6-fluoro-1H-indol-5-yl]methanesulfonamide] |  |  |  | 1.6 | 110 | 6.4
Cc1cc(Oc2c(F)cccc2F)ncc1-n1ncc(C(=O)c2cc3cc(F)c(NS(=O)(=O)CCCF)cc3[nH]2)c1N [Example 4-2-021, N-[2-[5-amino-1-[6-(2,6-difluorophenoxy)-4-methylpyridin-3-yl]pyrazole-4-carbonyl]-5-fluoro-1H-indol-6-yl]-3-fluoropropane-1-sulfonamide] | 1.5 | 43 | 8.6 |  |  | 
Cc1cc(Oc2c(F)cccc2F)ncc1-n1ncc(C(=O)c2cc3cc(F)c(N4C(=O)[C@@H]5CCCN5C4=O)cc3[nH]2)c1N [Example 5-1-432, (7aS)-2-[2-[5-amino-1-[6-(2,6-difluorophenoxy)-4-methylpyridin-3-yl]pyrazole-4-carbonyl]-5-fluoro-1H-indol-6-yl]-5,6,7,7a-tetrahydropyrrolo[1,2-c]imidazole-1,3-dione] | 3.8 | 96 | 7.7 |  |  | 
Cc1cc2cc(C(=O)c3cnn(-c4cc(F)c(Oc5ccccc5F)cc4C)c3N)[nH]c2cc1NS(C)(=O)=O [Example 5-1-199, N-[2-[5-amino-1-[5-fluoro-4-(2-fluorophenoxy)-2-methylphenyl]pyrazole-4-carbonyl]-5-methyl-1H-indol-6-yl]methanesulfonamide] |  |  |  | 2.7 | 78 | 37
Cc1ccccc1Oc1cc(C)c(-n2ncc(C(=O)c3cc4cc(F)c(NS(=O)(=O)C5CC5)cc4[nH]3)c2N)cn1 [Example 4-2-047, N-[2-[5-amino-1-[4-methyl-6-(2-methylphenoxy)pyridin-3-yl]pyrazole-4-carbonyl]-5-fluoro-1H-indol-6-yl]cyclopropanesulfonamide] | 4.5 | 79 | 64 |  |  | 
Cc1cc(Oc2c(F)cccc2F)ncc1-n1ncc(C(=O)c2cc3cc(OC4CCN(C(C)C)CC4)c(Br)cc3[nH]2)c1N [Example 5-1-134, [5-amino-1-[6-(2,6-difluorophenoxy)-4-methylpyridin-3-yl]pyrazol-4-yl]-[6-bromo-5-(1-propan-2-ylpiperidin-4-yl)oxy-1H-indol-2-yl] methanone] |  |  |  | 0.37 | 4.6 | 2.1
Cc1cc(Oc2ccccc2F)ccc1-n1ncc(C(=O)c2cc3cc(OC4CCN(C(C)C)CC4)c(N4CCOC4=O)cc3[nH]2)c1N [Example 5-1-192, 3-[2-[5-amino-1-[4-(2-fluorophenoxy)-2-methylphenyl]pyrazole-4-carbonyl]-5-(1-propan-2-ylpiperidin-4-yl)oxy-1H-indol-6-yl]-1,3-oxazolidin-2-one] |  |  |  | 0.29 | 1.1 | 0.86
Cc1cc(Oc2c(F)cccc2F)ncc1-n1ncc(C(=O)c2cc3cc(OC(F)F)c(N4CCOC4=O)cc3[nH]2)c1N [Example 4-21-009, 3-[2-[5-amino-1-[6-(2,6-difluorophenoxy)-4-methylpyridin-3-yl]pyrazole-4-carbonyl]-5-(difluoromethoxy)-1H-indol-6-yl]-1,3-oxazolidin-2-one] | 0.83 | 9.9 | 2.7 |  |  | 
Cc1cc(Oc2c(F)cccc2F)ncc1-n1ncc(C(=O)c2cc3cc(F)c(N4CCN(S(C)(=O)=O)CC4)cc3[nH]2)c1N [Example 5-1-099] |  |  |  | 2.1 | 11 | 2.2
Cc1cc(Oc2ccccc2F)cc(F)c1-n1ncc(C(=O)c2cc3cc(F)c(NS(=O)(=O)C4CC4)cc3[nH]2)c1N [Example 4-7-004, N-[2-[5-amino-1-[2-fluoro-4-(2-fluorophenoxy)-6-methylphenyl]pyrazole-4-carbonyl]-5-fluoro-1H-indol-6-yl]cyclopropanesulfonamide] | 4.8 | 220 | 40 |  |  | 
Cc1cc2cc(C(=O)c3cnn(-c4ccc(Oc5ccccc5F)cc4C)c3N)[nH]c2cc1NS(=O)(=O)c1cncc(F)c1 [Example 5-1-545, N-[2-[5-amino-1-[4-(2-fluorophenoxy)-2-methylphenyl]pyrazole-4-carbonyl]-5-methyl-1H-indol-6-yl]-5-fluoropyridine-3-sulfonamide] | 3.1 | 150 | 22 |  |  | 
Cc1cc2cc(C(=O)c3cnn(-c4cnc(Oc5c(F)cccc5F)cc4C)c3N)[nH]c2cc1NS(=O)(=O)c1cccc(Cl)c1 [Example 5-1-557, N-[2-[5-amino-1-[6-(2,6-difluorophenoxy)-4-methylpyridin-3-yl]pyrazole-4-carbonyl]-5-methyl-1H-indol-6-yl]-3-chlorobenzenesulfonamide] | 19 | 1500 | 320 |  |  | 
Cc1cc(Oc2ccccc2F)cc(F)c1-n1ncc(C(=O)c2cc3cc(OCC(F)F)c(NS(=O)(=O)CCCF)cc3[nH]2)c1N [Example 4-24-026, N-[2-[5-amino-1-[2-fluoro-4-(2-fluorophenoxy)-6-methylphenyl]pyrazole-4-carbonyl]-5-(2,2-difluoroethoxy)-1H-indol-6-yl]-3-fluoropropane-1-sulfonamide] | 1.7 | 50 | 21 |  |  | 
COc1cncc(S(=O)(=O)Nc2cc3[nH]c(C(=O)c4cnn(-c5cnc(Oc6ccccc6F)cc5C)c4N)cc3cc2C)c1 [Example 5-1-484, N-[2-[5-amino-1-[6-(2-fluorophenoxy)-4-methylpyridin-3-yl]pyrazole-4-carbonyl]-5-methyl-1H-indol-6-yl]-5-methoxypyridine-3-sulfonamide] | 6.9 | 570 | 140 |  |  | 
Cc1cc(Oc2c(F)cccc2F)ncc1-n1ncc(C(=O)c2cc3cc(F)c(N4C(=O)NC5(CC5)C4=O)cc3[nH]2)c1N [Example 5-1-343, 6-[2-[5-amino-1-[6-(2,6-difluorophenoxy)-4-methylpyridin-3-yl]pyrazole-4-carbonyl]-5-fluoro-1H-indol-6-yl]-4,6-diazaspiro[2.4] heptane-5,7-dione] |  |  |  | 3 | 100 | 7.2
